Assay results: US20240408169A1 (priority 2023, published 2024)
*1 amine or outer side, *2 acyl side, *3 side chain or, on linkers, in order; H or OH if unused. Where a SMILES comes first, the peptide text is derived from it. Bridges are numbered along the chain shown (N, C = ends). [ ]: non-standard residue; d: D form. The star is where a group is joined. NMeAla(5-Cl-2-cPrO-3-pyridyl) = CN[C@@H](Cc1cc(Cl)cnc1OC1CC1)C(=O)O; X58 = CC(C)C(=O)N1CC=C(c2ccc(Cl)cc2C[C@@H](C(=O)[*:2])N(C)[*:1])CC1; X105 = CN([C@@H](Cc1cc(Cl)ccc1-c1cnn(C2CCOC2)c1)C(=O)[*:2])[*:1]; X54 = CN([C@@H](Cc1cc(F)ccc1-c1cnn(C2CCC2)c1)C(=O)[*:2])[*:1]; X68 = CN([C@@H](Cc1cc(Cl)ccc1-c1cnn(C2CC2)c1)C(=O)[*:2])[*:1]; X79 = CC(C)n1cc(-c2ccc(Cl)cc2C[C@@H](C(=O)[*:2])N(C)[*:1])cn1; NMehhhLys(Me) = CN([C@@H](CCCCCCCN(C)[*:3])C(=O)[*:2])[*:1]; X22 = CN([C@@H](Cc1cc(Cl)ccc1-c1cnn(C)c1)C(=O)[*:2])[*:1]; NMe(hhhLys) = CN([C@@H](CCCCCCCN[*:3])C(=O)[*:2])[*:1]; Cyclobutanecarbonyl(1-CF3) = O=C(C1(C(F)(F)F)CCC1)*; cBuCO(3,3-F2-1-CF3) = O=C(C1(C(F)(F)F)CC(F)(F)C1)*; Pro(trans-4-F) = O=C(O)[C@@H]1C[C@@H](F)CN1; Gly(cPr) = N[C@H](C(=O)O)C1CC1

Columns and labels:
[1] = system: WI-38 cells; experiment: MTT proliferation assay, WI-38; format: cell-based; conditions: 3 days compound exposure, 1:3 serial dilution starting at 10 μM;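 note: Eight- or ten-point dilution series, with exposure length chosen to span about three to four cell doublings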
[2] = system: NCI-H1048 cells; experiment: MTT proliferation assay, NCI-H1048; format: cell-based; conditions: 5 days compound exposure, 1:3 serial dilution starting at 10 μM;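 note: Dose-response in 96-well plates over 8 or 10 concentration points, with exposure spanning 3-4 cell doublings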
[3] = molecular target: T1, CyclinA2/CDK2 (Homo sapiens, UniProt P20248); experiment: Fluorescence Polarization (FP) competitive binding assay, Cyclin A2/Cdk2; conditions: 8 nM Cyclin A2/Cdk2, 2 nM FAM probe; average of 2-3 independent experiments; read-out: Cyclin A FP IC50;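 note: plates equilibrated two hours at room temperature before polarization reading, IC50 fitted from eight-concentration compound titration curves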
T1 construct: purchased CRELUX Protein Services

[4] = molecular target: T2, CyclinE1/CDK2 (Homo sapiens, UniProt P24864); experiment: Fluorescence Polarization (FP) competitive binding assay, Cyclin E1/Cdk2; conditions: 10 nM Cyclin E1/Cdk2, 2 nM FAM probe; average of 2-3 independent experiments; read-out: Cyclin E FP IC50;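 note: readings taken after two-hour equilibration at room temperature in HEPES buffer with NaCl, DTT, NP-40 and BSA, IC50 fitted from eight-concentration serial dilution series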
T2 construct: purchased Eurofins, discovery 14-475

[5] = system: OVCAR3 cells; experiment: MTT proliferation assay, OVCAR3; format: cell-based; conditions: 5 days compound exposure, 1:3 serial dilution starting at 10 μM;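 note: compound given as an 8- or 10-point series, one day after plating, with exposure covering roughly 3-4 cell doublings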
[6] = molecular target: T3, CyclinB1/CDK1 (Homo sapiens, UniProt P14635); experiment: Fluorescence Polarization (FP) competitive binding assay, Cyclin B1/Cdk1; conditions: 10 nM Cyclin B1/Cdk1, 2 nM FAM probe; average of 2-3 independent experiments; read-out: Cyclin B FP IC50;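 note: fluorescence polarization read after equilibration at room temperature, with IC50 taken from serially diluted dose-response curves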
T3 construct: purchased Eurofins, discovery 14-450

## CC(C)C[C@@H]1NC(=O)[C@@H](N(C)C(=O)[C@@H](NC(=O)[C@@H]2C[C@@H](F)CN2C(=O)C2(C(F)(F)F)CCC2)C2CC2)CCCCCCCNC(=O)[C@H](Cc2cc(Cl)ccc2-c2cnn(C)c2)N(C)C1=O [Example 70] ({Cyclobutanecarbonyl(1-CF3)}-[Pro(trans-4-F)][Gly(cPr)][NMe(hhhLys)]L[X22]; lactam 3-C)
[1]
  GI50: 10.1 µM
[2]
  GI50: 10 nM
[3]
  IC50: 20 nM
[4]
  IC50: 290 nM
[5]
  GI50: 10 nM
[6]
  IC50: 20 nM

## CC(C)C[C@@H]1NC(=O)[C@@H](N(C)C(=O)[C@@H](CC(=O)[C@@H]2C[C@@H](F)CN2C(=O)C2(C(F)(F)F)CC(F)(F)C2)C2CC2)CCCCCCN(C)C(=O)[C@H](Cc2cc(Cl)ccc2C2=CCOCC2)N(C)C1=O [Example 71]
[1]
  GI50: 13.8 µM
[2]
  GI50: 70 nM
[3]
  IC50: 20 nM
[4]
  IC50: 1590 nM
[5]
  GI50: 90 nM
[6]
  IC50: 20 nM

## CC(C)C[C@@H]1NC(=O)[C@@H](N(C)C(=O)[C@@H](NC(=O)[C@@H]2C[C@@H](F)CN2C(=O)C2(C(F)(F)F)CC(F)(F)C2)C2CC2)CCCCCCN(C)C(=O)[C@H](Cc2cc(Cl)ccc2-c2cnn(C)c2)N(C)C1=O [Example 72]
[1]
  GI50: 14.9 µM
[2]
  GI50: 40 nM
[3]
  IC50: 30 nM
[4]
  IC50: 1050 nM
[5]
  GI50: 60 nM
[6]
  IC50: 20 nM

## CC(C)C[C@@H]1NC(=O)[C@@H](N(C)C(=O)[C@@H](NC(=O)[C@@H]2C[C@@H](F)CN2C(=O)C2(C(F)(F)F)CC(F)(F)C2)C2CC2)CCCCCCN(C)C(=O)[C@H](Cc2cc(Cl)ccc2-c2cnn(C3CC3)c2)N(C)C1=O [Example 73]
[1]
  GI50: 3.65 µM
[2]
  GI50: 40 nM
[3]
  IC50: 30 nM
[4]
  IC50: 930 nM
[5]
  GI50: 60 nM
[6]
  IC50: 20 nM

## CC(C)C[C@@H]1NC(=O)[C@@H](N(C)C(=O)[C@@H](NC(=O)[C@@H]2C[C@@H](F)CN2C(=O)C2(C(F)(F)F)CC(F)(F)C2)C2CC2)CC=CCCCCN(C)C(=O)[C@H](Cc2cc(Cl)ccc2-c2cnn(C3CC3)c2)N(C)C1=O [Example 78]
[1]
  GI50: 4.52 µM
[2]
  GI50: 30 nM
[3]
  IC50: 40 nM
[4]
  IC50: 640 nM
[5]
  GI50: 40 nM
[6]
  IC50: 20 nM

## COCn1cc(-c2ccc(Cl)cc2C[C@H]2C(=O)N(C)CCCCC=CC[C@H](N(C)C(=O)[C@@H](NC(=O)[C@@H]3C[C@@H](F)CN3C(=O)C3(C(F)(F)F)CCC3)C3CC3)C(=O)N[C@@H](CC(C)C)C(=O)N2C)cn1 [Example 80]
[1]
  GI50: 11.6 µM
[2]
  GI50: 30 nM
[3]
  IC50: 40 nM
[4]
  IC50: 300 nM
[5]
  GI50: 30 nM
[6]
  IC50: 20 nM

## CC(C)C[C@@H]1NC(=O)[C@@H](N(C)C(=O)[C@@H](NC(=O)[C@@H]2C[C@@H](F)CN2C(=O)C2(C(F)(F)F)CCC2)C2CC2)CC=CCCCCN(C)C(=O)[C@H](Cc2cc(Cl)ccc2-c2cnn(C3CC3)c2)N(C)C1=O [Example 81]
[1]
  GI50: 4.3 µM
[2]
  GI50: 40 nM
[3]
  IC50: 40 nM
[4]
  IC50: 300 nM
[5]
  GI50: 50 nM
[6]
  IC50: 20 nM

## CC(C)C[C@@H]1NC(=O)[C@@H](N(C)C(=O)[C@@H](NC(=O)[C@@H]2C[C@@H](F)CN2C(=O)C2(C(F)(F)F)CC(F)(F)C2)C2CC2)CC=CCCCCN(C)C(=O)[C@H](Cc2cc(F)ccc2-c2cnn(C3CCC3)c2)N(C)C1=O [Example 88]
[1]
  GI50: 7.64 µM
[2]
  GI50: 30 nM
[3]
  IC50: 50 nM
[4]
  IC50: 200 nM
[5]
  GI50: 30 nM
[6]
  IC50: 20 nM

## CC(C)C[C@@H]1NC(=O)[C@@H](N(C)C(=O)[C@@H](NC(=O)[C@@H]2C[C@@H](F)CN2C(=O)C2(C(F)(F)F)CC(F)(F)C2)C2CC2)CC=CCCCCNC(=O)[C@H](Cc2cc(Cl)ccc2C2=CCN(C(=O)C3CC3)CC2)N(C)C1=O [Example 89]
[1]
  GI50: 4.34 µM
[2]
  GI50: 310 nM
[3]
  IC50: 120 nM
[4]
  IC50: 5410 nM
[5]
  GI50: 380 nM
[6]
  IC50: 20 nM

## CC(C)C[C@@H]1NC(=O)[C@@H](N(C)C(=O)[C@@H](NC(=O)[C@@H]2C[C@@H](F)CN2C(=O)C2(C(F)(F)F)CC(F)(F)C2)C2CC2)CC=CCCCCNC(=O)[C@H](Cc2cc(Cl)ccc2C2=CCN(C(=O)C(C)C)CC2)N(C)C1=O [Example 90]
[1]
  GI50: 4.13 µM
[2]
  GI50: 260 nM
[3]
  IC50: 90 nM
[4]
  IC50: 3700 nM
[5]
  GI50: 230 nM
[6]
  IC50: 20 nM

## CC(C)C[C@@H]1NC(=O)[C@@H](N(C)C(=O)[C@@H](NC(=O)[C@@H]2C[C@@H](F)CN2C(=O)C2(C(F)(F)F)CC(F)(F)C2)C2CC2)CCCCCCCN(C)C(=O)[C@H](Cc2cc(F)ccc2-c2cnn(C3CCC3)c2)N(C)C1=O [Example 96] ({cBuCO(3,3-F2-1-CF3)}-[Pro(trans-4-F)][Gly(cPr)][NMehhhLys(Me)]L[X54]; lactam 3-C)
[1]
  GI50: 8.92 µM
[2]
  GI50: 10 nM
[3]
  IC50: 20 nM
[4]
  IC50: 120 nM
[5]
  GI50: 10 nM
[6]
  IC50: 20 nM

## CC(C)C[C@@H]1NC(=O)[C@@H](N(C)C(=O)[C@@H](NC(=O)[C@@H]2C[C@@H](F)CN2C(=O)C2(C(F)(F)F)CC(F)(F)C2)C2CC2)CCCCCCCNC(=O)[C@H](Cc2cc(Cl)ccc2C2=CCN(C(=O)C(C)C)CC2)N(C)C1=O [Example 98] ({cBuCO(3,3-F2-1-CF3)}-[Pro(trans-4-F)][Gly(cPr)][NMe(hhhLys)]L[X58]; lactam 3-C)
[1]
  GI50: 16.4 µM
[2]
  GI50: 20 nM
[3]
  IC50: 20 nM
[4]
  IC50: 1100 nM
[5]
  GI50: 20 nM
[6]
  IC50: 20 nM

## CC(C)C[C@@H]1NC(=O)[C@@H](N(C)C(=O)[C@@H](NC(=O)[C@@H]2C[C@@H](F)CN2C(=O)C2(C(F)(F)F)CCC2)C2CC2)CC=CCCCCN(C)C(=O)[C@H](Cc2cc(Cl)cnc2OC2CC2)N(C)C1=O [Example 106]
[1]
  GI50: 6.39 µM
[2]
  GI50: 410 nM
[3]
  IC50: 120 nM
[4]
  IC50: 240 nM
[5]
  GI50: 540 nM
[6]
  IC50: 20 nM

## CC(C)C[C@@H]1NC(=O)[C@@H](N(C)C(=O)[C@@H](NC(=O)[C@@H]2C[C@@H](F)CN2C(=O)C2(C(F)(F)F)CCC2)C2CC2)CCCCCCCN(C)C(=O)[C@H](Cc2cc(Cl)cnc2OC2CC2)N(C)C1=O [Example 109] ({Cyclobutanecarbonyl(1-CF3)}-[Pro(trans-4-F)][Gly(cPr)][NMehhhLys(Me)]L[NMeAla(5-Cl-2-cPrO-3-pyridyl)]; lactam 3-C)
[1]
  GI50: 9.52 µM
[2]
  GI50: 20 nM
[3]
  IC50: 40 nM
[4]
  IC50: 170 nM
[5]
  GI50: 20 nM
[6]
  IC50: 20 nM

## CC(C)C[C@@H]1NC(=O)[C@@H](N(C)C(=O)[C@@H](NC(=O)[C@@H]2C[C@@H](F)CN2C(=O)C2(C(F)(F)F)CC(F)(F)C2)C2CC2)CCCCCCCN(C)C(=O)[C@H](Cc2cc(Cl)ccc2-c2cnn(C3CC3)c2)N(C)C1=O [Example 110] ({cBuCO(3,3-F2-1-CF3)}-[Pro(trans-4-F)][Gly(cPr)][NMehhhLys(Me)]L[X68]; lactam 3-C)
[1]
  GI50: 4.8 µM
[2]
  GI50: 10 nM
[3]
  IC50: 20 nM
[4]
  IC50: 330 nM
[5]
  GI50: 10 nM
[6]
  IC50: 20 nM

## CC(C)C[C@@H]1NC(=O)[C@@H](N(C)C(=O)[C@@H](NC(=O)[C@@H]2C[C@@H](F)CN2C(=O)C2(C(F)(F)F)CC(F)(F)C2)C2CC2)CCCCCCCN(C)C(=O)[C@H](Cc2cc(Cl)ccc2-c2cnn(C(C)C)c2)N(C)C1=O [Example 111] ({cBuCO(3,3-F2-1-CF3)}-[Pro(trans-4-F)][Gly(cPr)][NMehhhLys(Me)]L[X79]; lactam 3-C)
[1]
  GI50: 8.13 µM
[2]
  GI50: 10 nM
[3]
  IC50: 20 nM
[4]
  IC50: 280 nM
[5]
  GI50: 10 nM
[6]
  IC50: 20 nM

## CC(C)C[C@@H]1NC(=O)[C@@H](N(C)C(=O)[C@@H](NC(=O)[C@@H]2C[C@@H](F)CN2C(=O)C2(C(F)(F)F)CC(F)(F)C2)C2CC2)CCCCCCCN(C)C(=O)[C@H](Cc2cc(Cl)ccc2-c2cnn(C3CCOC3)c2)N(C)C1=O (stereo partly drawn) [Example 113] ({cBuCO(3,3-F2-1-CF3)}-[Pro(trans-4-F)][Gly(cPr)][NMehhhLys(Me)]L[X105]; lactam 3-C)
[1]
  GI50: 7.24 µM
[2]
  GI50: 10 nM
[3]
  IC50: 20 nM
[4]
  IC50: 310 nM
[5]
  GI50: 10 nM
[6]
  IC50: 20 nM
